Experimental data as given in paper doi:10.1101/2021.05.03.442520v1 (biorxiv, 2021).

Biological target: TMPRSS2 (Homo sapiens, UniProt O15393)
Assay: fluorogenic pericellular protease assay, transfected Vero E6 cells
Format: cell-based
Conditions: Vero C1008, read-out: % inhibition at 10 nM

Chain of TMPRSS2 (O15393 whole entry): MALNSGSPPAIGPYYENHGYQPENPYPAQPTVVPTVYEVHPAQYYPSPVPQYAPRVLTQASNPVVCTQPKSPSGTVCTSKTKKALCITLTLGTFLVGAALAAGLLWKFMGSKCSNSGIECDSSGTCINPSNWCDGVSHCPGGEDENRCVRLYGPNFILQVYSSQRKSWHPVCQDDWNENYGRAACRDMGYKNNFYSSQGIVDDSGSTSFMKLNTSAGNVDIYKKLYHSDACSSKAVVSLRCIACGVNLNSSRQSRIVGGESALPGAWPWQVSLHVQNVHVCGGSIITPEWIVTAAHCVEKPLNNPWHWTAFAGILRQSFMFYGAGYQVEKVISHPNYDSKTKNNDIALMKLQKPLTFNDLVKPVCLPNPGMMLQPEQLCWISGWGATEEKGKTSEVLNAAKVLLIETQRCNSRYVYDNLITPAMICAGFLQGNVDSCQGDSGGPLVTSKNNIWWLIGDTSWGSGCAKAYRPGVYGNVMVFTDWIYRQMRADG

| Structure (SMILES) | inhibition at 0.01 µM |
| --- | --- |
| N=C(N)NCCCCC(=O)N[C@@H](CCC(N)=O)C(=O)N[C@@H](CC1CCCCC1)C(=O)N[C@@H](CCCNC(=N)N)C(=O)c1nc2ccccc2s1 [N-0678] | 5% |
| N=C(N)NCCC[C@H](NC(=O)[C@H](Cc1ccccc1)NC(=O)[C@H](CCC(N)=O)NC(=N)N)C(=O)c1nc2ccccc2s1 [N-1296] | 16% |
